# Source: BindingDB's records for doi:10.1021/jm021073r (University of Bath, 2003)
# pEC50: −log10 of the molar value.
# Molecular target: Kappa-type opioid receptor (Homo sapiens, UniProt P41145)
# Assay: Stimulation of U-69,593 binding at human recombinant Opioid receptor kappa 1 transfected into CHO cells.
# Chain of Kappa-type opioid receptor (P41145 whole entry): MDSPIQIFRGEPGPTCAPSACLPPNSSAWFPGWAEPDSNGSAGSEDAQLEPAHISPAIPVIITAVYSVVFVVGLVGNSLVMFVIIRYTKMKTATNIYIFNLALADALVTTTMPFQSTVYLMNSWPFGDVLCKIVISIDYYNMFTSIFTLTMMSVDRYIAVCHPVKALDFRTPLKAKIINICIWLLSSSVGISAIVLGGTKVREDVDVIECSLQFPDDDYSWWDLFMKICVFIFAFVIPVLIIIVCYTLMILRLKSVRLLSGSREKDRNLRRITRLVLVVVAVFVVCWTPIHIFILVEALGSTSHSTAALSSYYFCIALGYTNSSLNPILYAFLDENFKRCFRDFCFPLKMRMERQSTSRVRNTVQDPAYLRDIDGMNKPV
row,Compound,pEC50
1,CN1CC[C@]23c4c5ccc(O)c4O[C@H]2c2[nH]c4ccccc4c2C[C@@]3(N)C1C5,7.06
2,CCN[C@@]12Cc3c([nH]c4ccccc34)[C@@H]3Oc4c(O)ccc5c4[C@@]31CCN(C)C2C5,7.01
3,CCCCCCC(=O)N[C@@]12Cc3c([nH]c4ccccc34)[C@@H]3Oc4c(O)ccc5c4[C@@]31CCN(C)C2C5,7.24
4,CN1CC[C@]23c4c5ccc(O)c4O[C@H]2c2[nH]c4ccccc4c2C[C@@]3(NC(=O)CCc2ccccc2)C1C5,8.02
